The supplement of paper PMC10331698
± gives the standard deviation of the averaged measurements.

Experiments:
Experiment in all cases: level (log10 ratio to DMSO vehicle control); higher = higher biomarker level / cell amount than vehicle control
[1] = compound: CCN(CCO)S(=O)(=O)C(F)(F)C(F)(F)C(F)(F)C(F)(F)C(F)(F)C(F)(F)C(F)(F)C(F)(F)F [N-Ethyl-N-(2-hydroxyethyl)perfluorooctanesulfonamide]; conditions: in DMSO
Method: (§1)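 BioMAP Diversity Plus panel of 12 human primary cell co-culture systems (3C, 4H, LPS, SAg, BT, BF4T, BE3C, CASM3C, HDF3CGF, KF3CT, MyoF, Mphg). Compounds were added 1 h before stimulation and left for 24 h (MyoF 48 h; BT 72 h for soluble read-outs or 6 d for IgG). Biomarkers were read by ELISA, cytotoxicity by SRB, PBMC viability and proliferation by Alamar Blue. Each well value was divided by the mean of 8 DMSO control wells on the same plate and log10 transformed; duplicate blinded samples were tested at 4 concentrations.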

[2] = compound: OCCCC(F)(F)C(F)(F)C(F)(F)C(F)(F)C(F)(F)C(F)(F)C(F)(F)F [7:3 Fluorotelomer alcohol]; conditions: 6700 nM; in DMSO
Method: as §1

Perfluorodecanoic acid = compound: O=C(O)C(F)(F)C(F)(F)C(F)(F)C(F)(F)C(F)(F)C(F)(F)C(F)(F)C(F)(F)C(F)(F)F [Perfluorodecanoic acid]; conditions: in DMSO
Method: as §1

[3] = compound: FC(F)(F)C(F)(C(F)(F)F)C(F)(F)C(F)(F)CC1CO1 [3-(Perfluoro-3-methylbutyl)-1,2-propenoxide]; conditions: in DMSO
Method: as §1

[4] = compound: OCC(F)(F)OC(F)(F)C(F)(F)OC(F)(F)CO [1H,1H,8H,8H-Perfluoro-3,6-dioxaoctane-1,8-diol]; conditions: in DMSO
Method: as §1

Perfluoropropanoic acid = compound: O=C(O)C(F)(F)C(F)(F)F [Perfluoropropanoic acid]; conditions: in DMSO
Method: as §1

[5] = compound: O=C(O)C(F)(F)OC(F)(F)C(F)(F)OC(F)(F)F [Perfluoro-3,6-dioxaheptanoic acid]; conditions: in DMSO
Method: as §1

| Test System | level (log10) ([1]; 6700 nM) | level (log10) ([1]; 20000 nM) | level (log10) [2] | level (log10) (Perfluorodecanoic acid; 6700 nM) | level (log10) (Perfluorodecanoic acid; 20000 nM) | level (log10) ([3]; 6700 nM) | level (log10) ([3]; 20000 nM) | level (log10) ([4]; 6700 nM) | level (log10) ([4]; 20000 nM) | level (log10) ([4]; 60000 nM) | level (log10) (Perfluoropropanoic acid; 6700 nM) | level (log10) (Perfluoropropanoic acid; 20000 nM) | level (log10) (Perfluoropropanoic acid; 60000 nM) | level (log10) ([5]; 6700 nM) | level (log10) ([5]; 20000 nM) | level (log10) ([5]; 60000 nM) |
| --- | --- | --- | --- | --- | --- | --- | --- | --- | --- | --- | --- | --- | --- | --- | --- | --- |
| BF4T:SRB | -0.016 ± 0.0071 | -0.027 ± 0.018 | -0.008 ± 0.017 | -0.001 ± 0.0071 | -0.256 ± 0.0014 | 0.0015 ± 0.0035 | -0.0035 ± 0.00071 | -0.0045 ± 0.013 | -0.0065 ± 0.005 | -0.0055 ± 0.0021 | -0.002 ± 0.0028 | -0.0025 ± 0.0064 | -0.0055 ± 0.0064 | -0.007 ± 0.0057 | -0.0035 ± 0.0021 | -0.003 ± 0.0028 |
| SAg:CCL2/MCP-1 | -0.0055 ± 0.005 | -0.091 ± 0.023 | 0.003 ± 0.0014 | 0.0065 ± 0.0064 | -0.017 ± 0.0014 | -0.0225 ± 0.039 | 0.004 ± 0.0085 | 0.0085 ± 0.005 | -0.0105 ± 0.012 | 0.011 ± 0.037 | -0.0055 ± 0.036 | 0.012 ± 0.016 | 0.0145 ± 0.042 | 0.0125 ± 0.032 | 0.002 ± 0.035 | -0.0025 ± 0.033 |
| LPS:M-CSF | 0.0495 ± 0.033 | 0.104 ± 0.041 | -0.006 ± 0.025 | -0.0015 ± 0.015 | -0.0045 ± 0.018 | -0.0005 ± 0.019 | 0.021 ± 0.038 | -0.015 ± 0.0042 | -0.018 ± 0.031 | 0.007 ± 0.067 | 0.006 ± 0.0028 | -0.027 ± 0.0014 | -0.0005 ± 0.037 | -0.0505 ± 0.056 | -0.014 ± 0.055 | -0.0185 ± 0.057 |
| BE3C:CXCL11/I-TAC | -0.006 ± 0.023 | -0.0035 ± 0.029 | 0.022 ± 0.017 | -0.0405 ± 0.021 | -0.849 ± 0.028 | 0 ± 0.0057 | -0.0075 ± 0.0035 | 0.007 ± 0.0014 | 0.0185 ± 0.0021 | 0.009 ± 0.014 | 0.007 ± 0.0071 | 0.013 ± 0.014 | 0.029 ± 0.033 | 0.011 ± 0.023 | 0.008 ± 0.0014 | 0.012 ± 0.02 |
| LPS:sPGE2 | -0.023 ± 0.023 | 0.07 ± 0.0042 | 0.101 ± 0.03 | -0.017 ± 0.025 | -0.052 ± 0.0071 | -0.012 ± 0.023 | -0.0095 ± 0.054 | -0.0235 ± 0.019 | -0.023 ± 0.045 | -0.0195 ± 0.00071 | -0.017 ± 0.05 | -0.018 ± 0.0071 | -0.011 ± 0.04 | -0.0065 ± 0.047 | -0.0395 ± 0.018 | -0.006 ± 0.021 |
| BE3C:EGFR | -0.02 ± 0.0014 | -0.072 ± 0.0057 | 0.0115 ± 0.015 | -0.0135 ± 0.05 | -0.149 ± 0.073 | -0.01 ± 0.013 | -0.023 ± 0.013 | 0.0085 ± 0.012 | -0.0025 ± 0.021 | -0.0095 ± 0.0064 | -0.0175 ± 0.036 | 0.0065 ± 0.012 | 0.035 ± 0.035 | -0.0185 ± 0.012 | 0.003 ± 0.021 | 0.007 ± 0.02 |
| SAg:CD40 | 0 ± 0.028 | -0.052 ± 0.023 | -0.031 ± 0.0057 | -0.0095 ± 0.021 | -0.0305 ± 0.012 | -0.018 ± 0.025 | -0.0205 ± 0.039 | -0.003 ± 0.0057 | 0.0095 ± 0.013 | 0.004 ± 0.0042 | -0.045 ± 0.016 | -0.0335 ± 0.044 | -0.009 ± 0.031 | -0.0425 ± 0.088 | -0.0475 ± 0.022 | -0.063 ± 0.093 |
| LPS:CCL2/MCP-1 | -0.017 ± 0.025 | -0.0535 ± 0.012 | -0.026 ± 0.023 | -0.0005 ± 0.012 | -0.0015 ± 0.0064 | -0.01 ± 0.0057 | 0.005 ± 0.024 | -0.002 | -0.015 ± 0.0071 | 0.008 ± 0.0057 | -0.011 ± 0.014 | -0.008 ± 0.031 | 0.019 ± 0.068 | 0.0005 ± 0.022 | -0.001 ± 0.04 | -0.0085 ± 0.025 |
